Here are results for 24 compounds from patent publication US10202368B2, “CXCR7 receptor modulators” (IDORSIA PHARMACEUTICALS LTD, priority 2014, dated 2019).

Chain of CXCR7 (P25106 whole entry): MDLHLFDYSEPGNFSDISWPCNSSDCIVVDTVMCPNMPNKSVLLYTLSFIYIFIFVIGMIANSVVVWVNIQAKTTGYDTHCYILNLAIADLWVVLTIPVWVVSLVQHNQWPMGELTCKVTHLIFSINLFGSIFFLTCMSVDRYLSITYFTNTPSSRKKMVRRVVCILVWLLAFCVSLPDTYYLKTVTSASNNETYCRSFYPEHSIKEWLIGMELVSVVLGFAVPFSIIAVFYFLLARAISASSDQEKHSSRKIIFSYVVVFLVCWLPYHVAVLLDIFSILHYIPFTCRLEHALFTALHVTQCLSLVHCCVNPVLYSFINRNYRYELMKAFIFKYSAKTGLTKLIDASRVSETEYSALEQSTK
Chain of CXCR7 (P32121 whole entry partner): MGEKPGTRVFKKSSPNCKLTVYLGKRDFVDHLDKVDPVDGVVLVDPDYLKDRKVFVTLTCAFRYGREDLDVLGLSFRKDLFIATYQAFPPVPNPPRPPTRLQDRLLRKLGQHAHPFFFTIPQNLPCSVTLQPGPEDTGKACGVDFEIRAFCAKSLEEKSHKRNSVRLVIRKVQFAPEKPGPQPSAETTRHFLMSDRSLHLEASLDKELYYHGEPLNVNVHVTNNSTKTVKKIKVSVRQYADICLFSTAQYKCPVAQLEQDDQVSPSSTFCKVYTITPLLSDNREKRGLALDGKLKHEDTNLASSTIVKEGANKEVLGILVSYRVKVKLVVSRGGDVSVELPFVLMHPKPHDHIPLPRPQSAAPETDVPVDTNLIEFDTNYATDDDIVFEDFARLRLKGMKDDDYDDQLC

In the test the target is CXCR7 (Homo sapiens (Human), UniProt P25106). Nature of the test: PathHunter CHO-K1 CXCR7 β-arrestin assay (agonistic activity). To be noted: β-arrestin recruitment in PathHunter CHO-K1 CXCR7 β-arrestin cells, 90 minutes at 37° C., geometric mean values. The format is cell-based. As for the experimental part:
The CXCI12 receptor and CXCR7 agonistic activities of the compounds of formula (I) are determined in accordance with the following experimental method.
The assay is using the PathHunter™ CHO-K1 CXCR7 β-arrestin cell line from DiscoverX. The system is based on the Enzyme Fragment Complementation Technology. Two complementing fragments of the β-galactosidase enzyme are expressed within stably transfected cells. The larger portion of β-gal, termed EA for Enzyme Acceptor, is fused to the C-terminus of b-arrestin 2. The smaller fragment, termed ProLink™ tag, is fused to CXCR7 at the C-terminus. Upon activation, b-arrestin is recruited which forces the interaction of ProLink and EA, allowing complementation of the two fragments of b-gal and the formation of a functional enzyme which is capable of hydrolysing the substrate and generating a chemiluminescent signal.
CHO-K1 CXCR7 β-arrestin cells are detached from culture dishes with a cell dissociation buffer (Invitrogen, #13151-014) and collected in growing medium (F12 HAMS 90% (v/v)/FCS 10% (v/v), Penicillin/streptomycin 1% (v/v)). 5000 cells per well (in 20 μl) are seeded in a 384 well plate (white-walled, clear bottom; BD Falcon #353274). The plate is incubated at 37° C./5% CO2 for 24 hours. Medium is then replaced by 20 μl OPTIMEM (Invitrogen #31985) for 3 to 4 hours. Test compounds are dissolved at 10 mM in DMSO and serially diluted in DMSO to 200× of the final concentration for dose response curves. Compounds are then diluted 1:33.3 in HBSS1X. 5 μl/well of HBSS1X/20 mM HEPES/0.2% BSA are added to the assay plate followed by addition of 5 μl/well of diluted compounds. CXCL12 (Peprotech #300-28A) may be used as a reference agonist. The plate is incubated for 90 minutes at 37° C. 12 μl of detection reagent (Path Hunter Detection Kit, DiscoveRx, #93-0001) is transferred to the assay plate and to the plate is incubated for 1 hour at room temperature. Luminescent signal is read in a microplate reader (FLUOstar Optima, bmg). The calculated EC50 values may fluctuate depending on the daily cellular assay performance. Fluctuations of this kind are known to those skilled in the art. Average EC50 values from several measurements are given as geometric mean values.
A general note: Arrestin recruitment assays detect the binding of arrestin to an activated receptor.
By EC50 is commonly meant the concentration needed to bring the measured effect to its halfway point. With `CC(C)NCCN(Cc1ccccc1C(F)(F)F)C(=O)CNc1cccc2c1OCCN(CC1CC1)C2` [Example 85, 2-(4-Cyclopropylmethyl-2,3,4,5-tetrahydro-benzo[f][1,4]oxazepin-9-ylamino)-N-(2-isopropylamino-ethyl)-N-(2-trifluoromethyl-benzyl)-acetamide], a half-maximal effect (EC50) was put at 3 nM.

As for `CCN1CCOc2c(NCC(=O)N(CCN3CCCC3)Cc3ncccc3Cl)cccc2C1=O` [Example 59, N-(3-Chloro-pyridin-2-ylmethyl)-2-(4-ethyl-5-oxo-2,3,4,5-tetrahydro-benzo[f][1,4]oxazepin-9-ylamino)-N-(2-pyrrolidin-1-yl-ethyl)-acetamide], the concentration for a half-maximal effect (EC50) is 260 nM.

As for `CC(C)(C)NCCN(Cc1ncccc1C(F)(F)F)C(=O)CNc1cccc2c1CN(CC1CC1)CCO2` [Example 94, N-(2-tert-Butylamino-ethyl)-2-(4-cyclopropylmethyl-2,3,4,5-tetrahydro-benzo[f][1,4]oxazepin-6-ylamino)-N-(3-trifluoromethyl-pyridin-2-ylmethyl)-acetamide], a half-maximal effect (EC50) was put at 4 nM.

In the case of `CCN1CCOc2c(cccc2NCC(=O)N(CCNC(C)C)Cc2ccccc2C(F)(F)F)C1` [Example 71, 2-(4-Ethyl-2,3,4,5-tetrahydro-benzo[f][1,4]oxazepin-9-ylamino)-N-(2-isopropylamino-ethyl)-N-(2-trifluoromethyl-benzyl)-acetamide], the EC50 was determined as 4 nM.

`CN(C)CCN(Cc1ccccc1C(F)(F)F)C(=O)CNc1cccc2c1N(C)CCN(CC1CC1)C2=O` [Example 42, 2-(4-Cyclopropylmethyl-1-methyl-5-oxo-2,3,4,5-tetrahydro-1H-benzo[e][1,4]diazepin-9-ylamino)-N-(2-dimethylamino-ethyl)-N-(2-trifluoromethyl-benzyl)-acetamide] registered an EC50 of 7 nM.

In turn, “2-(4-Cyclopropylmethyl-1-methyl-2,3,4,5-tetrahydro-1H-benzo[e][1,4]diazepin-9-ylamino)-N-(2-morpholin-4-yl-ethyl)-N-(3-trifluoromethyl-pyridin-2-ylmethyl)-acetamide [Example 55]” returned an EC50 of 10 nM.

`CCN1CCOc2c(cccc2NCC(=O)N(CCN(C)C)Cc2cnc(C(F)(F)F)s2)C1` [Example 76, N-(2-Dimethylamino-ethyl)-2-(4-ethyl-2,3,4,5-tetrahydro-benzo[f][1,4]oxazepin-9-ylamino)-N-(2-trifluoromethyl-thiazol-5-ylmethyl)-acetamide] returned an EC50 of 430 nM.

For the compound `CCN1CCOc2c(cccc2NCC(=O)N(CCNC(C)(C)C)Cc2ccccc2C(F)(F)F)C1` [Example 70, N-(2-tert-Butylamino-ethyl)-2-(4-ethyl-2,3,4,5-tetrahydro-benzo[f][1,4]oxazepin-9-ylamino)-N-(2-trifluoromethyl-benzyl)-acetamide], the EC50 turned out to be 4 nM.

As to `CN(C)CCN(Cc1c(Cl)cccc1Cl)C(=O)CNc1cccc2c1C(=O)N(CC1CC1)CCO2` [Example 31, 2-(4-Cyclopropylmethyl-5-oxo-2,3,4,5-tetrahydro-benzo[f][1,4]oxazepin-6-ylamino)-N-(2,6-dichloro-benzyl)-N-(2-dimethylamino-ethyl)-acetamide], the midpoint of the response, the EC50, lay at 27 nM.

`CC(C)N(CCN(Cc1ccccc1C(F)(F)F)C(=O)CNc1cccc2c1N(C)CCN(CC1CC1)C2)C(=O)OC(C)(C)C` [Example 50, {2-[[2-(4-Cyclopropylmethyl-1-methyl-2,3,4,5-tetrahydro-1H-benzo[e][1,4]diazepin-9-ylamino)-acetyl]-(2-trifluoromethyl-benzyl)-amino]-ethyl}-isopropyl-carbamic acid tert-butyl ester] returned an EC50 of 340 nM.

With `CC(C)CN1CCOc2c(cccc2NCC(=O)N(CCN(C)C)Cc2cccc(C(F)(F)F)c2)C1` [Example 18, N-(2-Dimethylamino-ethyl)-2-(4-isobutyl-2,3,4,5-tetrahydro-benzo[f][1,4]oxazepin-9-ylamino)-N-(3-trifluoromethyl-benzyl)-acetamide], the EC50 was 53 nM.

For the compound `CCN1CCOc2c(NCC(=O)N(CCN(C)C)Cc3ncccc3Cl)cccc2C1=O` [Example 60, N-(3-Chloro-pyridin-2-ylmethyl)-N-(2-dimethylamino-ethyl)-2-(4-ethyl-5-oxo-2,3,4,5-tetrahydro-benzo[f][1,4]oxazepin-9-ylamino)-acetamide], the EC50 was 260 nM.

`CCCN1CCOc2c(cccc2NCC(=O)N(CCN(C)C)Cc2ncccc2Cl)C1` [Example 6, N-(3-Chloro-pyridin-2-ylmethyl)-N-(2-dimethylamino-ethyl)-2-(4-propyl-2,3,4,5-tetrahydro-benzo[f][1,4]oxazepin-9-ylamino)-acetamide] had an EC50 of 19 nM.

`CC(C)CN1CCOc2c(cccc2NCC(=O)N(CCN(C)C)Cc2ccc(F)cc2C(F)(F)F)C1` [Example 17, N-(2-Dimethylamino-ethyl)-N-(4-fluoro-2-trifluoromethyl-benzyl)-2-(4-isobutyl-2,3,4,5-tetrahydro-benzo[f][1,4]oxazepin-9-ylamino)-acetamide] displayed an EC50 of 59 nM.

`CCN1CCOc2c(cccc2NCC(=O)N(CCN(C)C)Cc2c(C(F)(F)F)nn(C)c2Cl)C1` [Example 77, N-(5-Chloro-1-methyl-3-trifluoromethyl-1H-pyrazol-4-ylmethyl)-N-(2-dimethylamino-ethyl)-2-(4-ethyl-2,3,4,5-tetrahydro-benzo[f][1,4]oxazepin-9-ylamino)-acetamide] gave an EC50 of 280 nM.

In turn, `CC(C)NCCN(Cc1ccccc1C(F)(F)F)C(=O)CNc1cccc2c1OCCN(CC1CC1)C2=O` [Example 62, 2-(4-Cyclopropylmethyl-5-oxo-2,3,4,5-tetrahydro-benzo[f][1,4]oxazepin-9-ylamino)-N-(2-isopropylamino-ethyl)-N-(2-trifluoromethyl-benzyl)-acetamide] had an EC50 of 5 nM.

Regarding `CCN1CCOc2c(cccc2NCC(=O)N(CCN(C)C)Cc2ncccc2Cl)C1` [Example 4, N-(3-Chloro-pyridin-2-ylmethyl)-N-(2-dimethylamino-ethyl)-2-(4-ethyl-2,3,4,5-tetrahydro-benzo[f][1,4]oxazepin-9-ylamino)-acetamide], it took 24 nM to reach a half-maximal effect (EC50).

For `CCN1CCOc2c(cccc2NCC(=O)N(CCN(C)C(=O)OC(C)(C)C)Cc2ncccc2Cl)C1` [Example 78, (2-{(3-Chloro-pyridin-2-ylmethyl)-[2-(4-ethyl-2,3,4,5-tetrahydro-benzo[f][1,4]oxazepin-9-ylamino)-acetyl]-amino}-ethyl)-methyl-carbamic acid tert-butyl ester], the response was half-maximal at 240 nM (EC50).

`CC(C)NCCN(Cc1ccccc1C(F)(F)F)C(=O)CNc1cccc2c1N(C)CCN(CC1CC1)C2=O` [Example 46, 2-(4-Cyclopropylmethyl-1-methyl-5-oxo-2,3,4,5-tetrahydro-1H-benzo[e][1,4]diazepin-9-ylamino)-N-(2-isopropylamino-ethyl)-N-(2-trifluoromethyl-benzyl)-acetamide]: it took 5 nM to reach a half-maximal effect (EC50).

In the case of `CC(C)(C)NCCN(Cc1ccccc1C(F)(F)F)C(=O)CNc1cccc2c1OCCN(CC1CC1)C2=O` [Example 63, N-(2-tert-Butylamino-ethyl)-2-(4-cyclopropylmethyl-5-oxo-2,3,4,5-tetrahydro-benzo[f][1,4]oxazepin-9-ylamino)-N-(2-trifluoromethyl-benzyl)-acetamide], the concentration for a half-maximal effect (EC50) was determined as 2 nM.

In turn, `CC(C)NCCN(Cc1ncccc1C(F)(F)F)C(=O)CNc1cccc2c1CN(CC1CC1)CCO2` [Example 90, 2-(4-Cyclopropylmethyl-2,3,4,5-tetrahydro-benzo[f][1,4]oxazepin-6-ylamino)-N-(2-isopropylamino-ethyl)-N-(3-trifluoromethyl-pyridin-2-ylmethyl)-acetamide] displayed an EC50 of 7 nM.

As to `CCN1CCOc2c(cccc2NCC(=O)N(CCN2CCCC2)Cc2ncccc2Cl)C1` [Example 75, N-(3-Chloro-pyridin-2-ylmethyl)-2-(4-ethyl-2,3,4,5-tetrahydro-benzo[f][1,4]oxazepin-9-ylamino)-N-(2-pyrrolidin-1-yl-ethyl)-acetamide], the EC50 was 19 nM.

With `CCN1CCOc2c(cccc2NCC(=O)N(CCN2CCCC2)Cc2ncccc2C(F)(F)F)C1` [Example 74, 2-(4-Ethyl-2,3,4,5-tetrahydro-benzo[f][1,4]oxazepin-9-ylamino)-N-(2-pyrrolidin-1-yl-ethyl)-N-(3-trifluoromethyl-pyridin-2-ylmethyl)-acetamide], a half-maximal effect (EC50) was put at 5 nM.

For the compound `CC(C)CN1CCOc2c(cccc2NCC(=O)N(CCN(C)C)Cc2ccccc2C(F)(F)F)C1` [Example 1, N-(2-Dimethylamino-ethyl)-2-(4-isobutyl-2,3,4,5-tetrahydro-benzo[f][1,4]oxazepin-9-ylamino)-N-(2-trifluoromethyl-benzyl)-acetamide], it took 8 nM to reach a half-maximal effect (EC50).
